molecular target: T1, oxytocin receptor (CHO-OTR/NFAT-β-Lactamase cells) (Homo sapiens, UniProt P30559); test: Oxytocin Receptor Beta-Lactamase Assay; type: cell-based; settings: oxytocin stimulation, read-out: oxytocin antagonist activity, expressed as a Ki value
T1 construct: expressed in transfected cells; host or cells: CHO-OTR cell line, further transfected with the NFAT-β-lactamase reporter construct
T1 sequence (P30559 1-389): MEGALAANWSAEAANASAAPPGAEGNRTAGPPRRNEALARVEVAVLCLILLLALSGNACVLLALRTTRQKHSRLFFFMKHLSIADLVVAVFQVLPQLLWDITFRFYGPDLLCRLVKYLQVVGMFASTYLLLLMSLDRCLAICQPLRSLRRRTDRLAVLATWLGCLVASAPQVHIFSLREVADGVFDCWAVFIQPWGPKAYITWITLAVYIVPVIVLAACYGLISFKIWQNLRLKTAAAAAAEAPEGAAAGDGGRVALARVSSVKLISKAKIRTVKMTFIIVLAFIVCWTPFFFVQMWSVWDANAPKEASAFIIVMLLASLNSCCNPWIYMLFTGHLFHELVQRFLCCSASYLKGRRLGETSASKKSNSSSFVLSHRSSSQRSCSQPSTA
Procedure: A suitable assay for determining the oxytocin antagonist activity of a compound is detailed herein below.
Oxytocin Receptor Beta-Lactamase Assay
Cell Culture Cells used are CHO-OTR/NFAT-β-Lactamase. The NFAT-β-lactamase expression construct was transfected into the CHO-OTR cell line and clonal populations were isolated via fluorescence activated cell sorting (FACS). An appropriate clone was selected to develop the assay. Growth Medium 90% F12 Nutrient Mix, 15 mM HEPES 10% FBS 400 μg/ml Geneticin 200 μg/ml Zeocin 2 mM L-Glutamine Assay Media 99.5% F12 Nutrient Mix, 15 mM HEPES 0.5% FBS
Recovery of cells—A vial of frozen cells is thawed rapidly in 37° C. water bath and the cell suspension transferred into a T225 flask with 50 ml of fresh growth medium and then incubated at 37° C., 5% CO2 in an incubator until the cells adhered to the flask Replace media with 50 ml of fresh growth media the following day.
Culturing cells—CHO-OTR-NFAT-βLactamase cells were grown in growth medium. Cells were harvested when they reached 80-90% confluence removing the medium and washing with pre-warmed PBS. PBS was then removed and Trypsin/EDTA added (3 mls for T225 cm^2 flask) before incubating for 5 min in 37° C./5% CO2 incubator. When cells were detached, pre-warmed growth media was added (7 mls for T225 cm^2 flask) and the cells re-suspended and mixed gently by pipetting to achieve single cell suspension. The cells were split into T225 flask at 1:10 (for 3 days growth) and 1:30 (for 5 days growth) ratio in 35 ml growth medium.
Cells grown at 80-90% confluence were harvested and counted. Suspensions of cells at 2×10^5 cells/ml in growth medium were prepared and 30 μl of cells suspension added in 384-well, black clear-bottom plates. A blank plate containing diluents from each reagent was used for background subtraction.
Plates were incubated at 37° C., 5% CO2 overnight. […]
Preparation of 1 ml of 6× Loading Buffer with Enhanced Loading Protocol (this requires scale-up according to number of plates to be screened). • 12 μl of solution A (1 mM CCF4-AM in Dry DMSO) was added to […] of solution B (100 mg/ml Pluronic-F127 in DMSO+0.1% Acetic Acid) and vortexed. • The resulting solution was added to 925 μl of solution C (24% w/w PEG400, 18% TR40 v/v in water). • 75 μl of solution D was added (200 mM probenecid in 200 mM NaOH). • 10 μl of 6× Loading Buffer was added to all wells and incubated for 1.5 hrs-2 hrs at room temperature in the dark. • The plates were read using an LJL Analyst, Excitation 405 nm, Emission 450 nm and 530 nm, gain optimal, lagtime 0.40 μs integration, 4 flashes, bottom reading.

Q: How did the Ki turn out when COCc1nnc(N2CC(Oc3ccc(F)cc3Cl)C2)n1-c1ccc(OC)nc1 [Example 25] was run?
A: Its Ki is 9 nM.

Q: Which Ki does the source give for COCc1nnc(N2CC(Oc3cccc(C)c3C)C2)n1-c1ccc(OC)nc1 [Example 28] here?
A: The Ki was 13.8 nM.

Q: COc1ccc(-n2c(C)nnc2N2CCC(Oc3ccc(F)cc3C)CC2)cn1 [Example 43] was tested. Which Ki did it give?
A: Its Ki is 4.2 nM.

Q: For COCc1nnc(N2CCC(Oc3cccc(F)c3C)CC2)n1-c1ccc(OC)nc1 [Example 48], which Ki is on record?
A: Its Ki is 1.8 nM.
